Experimental data published in ChEMBL document CHEMBL1201862, “PubChem BioAssay data set” (2004).
Several values for one entry are separate records, joined by “and”; a condition that tells them apart may be missing. Identical values can stand only once.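 Following 48 hours of exposure in 96-well plates, responses at five concentrations were used to interpolate endpoints linearly. GI50: concentration for 50% inhibition of growth.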 Activity calls are given as the source filed them. No stated cut-off is given here; in the data, active = GI50 up to about 1.1 µM and inactive = higher.

How the values were obtained:
Test in all cases: inhibition of tumour cell growth, NCI panel, 48 h
SW-620 = test system: SW-620
OVCAR-4 = test system: OVCAR-4
SK-MEL-28 = test system: SK-MEL-28
NCI-H226 = test system: NCI-H226
HL-60 = test system: HL-60
M14 = test system: M14
MDA-MB-435 = test system: MDA-MB-435
SF-295 = test system: SF-295
HCT-15 = test system: HCT-15
UACC-62 = test system: UACC-62
OVCAR-5 = test system: OVCAR-5
SR = test system: SR
SNB-75 = test system: SNB-75
MDA-N = test system: MDA-N
A498 = test system: A498
MCF7 = test system: MCF7
SF-268 = test system: SF-268
HOP-62 = test system: HOP-62
ACHN = test system: ACHN
SK-MEL-5 = test system: SK-MEL-5
MDA-MB-231 = test system: MDA-MB-231
NCI-H23 = test system: NCI-H23
RPMI-8226 = test system: RPMI-8226
Hs-578T = test system: Hs-578T
COLO 205 = test system: COLO 205
A549 = test system: A549
SNB-19 = test system: SNB-19
UO-31 = test system: UO-31
SN12C = test system: SN12C
CCRF-CEM = test system: CCRF-CEM
U-251 = test system: U-251
Malme-3M = test system: Malme-3M
NCI-H522 = test system: NCI-H522
OVCAR-8 = test system: OVCAR-8
HT-29 = test system: HT-29
PC-3 = test system: PC-3
NCI/ADR-RES = test system: NCI/ADR-RES
HOP-92 = test system: HOP-92
OVCAR-3 = test system: OVCAR-3
KM12 = test system: KM12
IGROV-1 = test system: IGROV-1
SK-OV-3 = test system: SK-OV-3
SK-MEL-2 = test system: SK-MEL-2
TK-10 = test system: TK-10
786-0 = test system: 786-0
DU-145 = test system: DU-145
MOLT-4 = test system: MOLT-4
HCT-116 = test system: HCT-116
K562 = test system: K562
LOX IMVI = test system: LOX IMVI
EKVX = test system: EKVX
HCC 2998 = test system: HCC 2998
T47D = test system: T47D
RXF 393 = test system: RXF 393
UACC-257 = test system: UACC-257
CAKI-1 = test system: CAKI-1
NCI-H460 = test system: NCI-H460
SF-539 = test system: SF-539

COc1ccc(/C=C2\N=C(SC)N(CN3CCOCC3)C2=O)cc1
GI50 (SW-620): 22 µM (inactive) | GI50 (OVCAR-4): 18.6 µM (inactive) | GI50 (SK-MEL-28): > 100 µM (inactive) | GI50 (NCI-H226): 29.2 µM (inactive) | GI50 (HL-60): 56.9 µM (inactive) | GI50 (M14): 55 µM (inactive) | GI50 (MDA-MB-435): 74.8 µM (inactive) | GI50 (SF-295): 98.9 µM (inactive) | GI50 (HCT-15): 30.7 µM | GI50 (UACC-62): 40.2 µM (inactive) | GI50 (OVCAR-5): > 100 µM (inactive) | GI50 (SR): 30.8 µM (inactive) | GI50 (SNB-75): 60.7 µM (inactive) | GI50 (MDA-N): 71.1 µM (inactive) | GI50 (A498): 34 µM (inactive) | GI50 (MCF7): 16 µM (inactive) | GI50 (SF-268): 48 µM (inactive) | GI50 (HOP-62): 69.7 µM (inactive) | GI50 (ACHN): 43.3 µM (inactive) | GI50 (SK-MEL-5): 47.3 µM (inactive) | GI50 (MDA-MB-231): > 100 µM (inactive) | GI50 (NCI-H23): > 100 µM (inactive) | GI50 (RPMI-8226): 24.8 µM (inactive) | GI50 (Hs-578T): 59.2 µM (inactive) | GI50 (COLO 205): 36.3 µM (inactive) | GI50 (A549): 65.3 µM (inactive) | GI50 (SNB-19): 84.5 µM (inactive) | GI50 (UO-31): 49.8 µM (inactive) | GI50 (SN12C): > 100 µM (inactive) | GI50 (CCRF-CEM): 21.2 µM (inactive) | GI50 (U-251): 51.6 µM (inactive) | GI50 (Malme-3M): 72.6 µM (inactive) | GI50 (NCI-H522): 82.8 µM (inactive) | GI50 (OVCAR-8): 48.2 µM (inactive) | GI50 (HT-29): 27.5 µM (inactive) | GI50 (PC-3): 49.2 µM (inactive) | GI50 (NCI/ADR-RES): 80.9 µM (inactive) | GI50 (HOP-92): 5.38 µM (inactive) | GI50 (OVCAR-3): 90.6 µM (inactive) | GI50 (KM12): 78.3 µM (inactive) | GI50 (IGROV-1): 37.5 µM (inactive) | GI50 (SK-OV-3): > 100 µM (inactive) | GI50 (SK-MEL-2): > 100 µM (inactive) | GI50 (TK-10): 56.5 µM (inactive) | GI50 (786-0): 70.6 µM (inactive) | GI50 (DU-145): 65.9 µM (inactive) | GI50 (MOLT-4): 36.4 µM (inactive) | GI50 (HCT-116): 33.1 µM (inactive) | GI50 (K562): 39 µM (inactive) | GI50 (LOX IMVI): 37.2 µM (inactive) | GI50 (EKVX): 55.2 µM (inactive)

Clc1ccc(/C=N/Nc2nnc3c4ccccc4c4ncccc4c3n2)cc1
GI50 (SW-620): > 10 µM (inactive) | GI50 (SK-MEL-28): > 10 µM (inactive) | GI50 (HL-60): > 10 µM (inactive) | GI50 (M14): > 10 µM (inactive) | GI50 (SF-295): > 10 µM (inactive) | GI50 (HCT-15): > 10 µM | GI50 (UACC-62): > 10 µM (inactive) | GI50 (SR): > 10 µM (inactive) | GI50 (HCC 2998): > 10 µM (inactive) | GI50 (SNB-75): > 10 µM (inactive) | GI50 (MDA-N): > 10 µM (inactive) | GI50 (MCF7): > 10 µM (inactive) | GI50 (SF-268): > 10 µM (inactive) | GI50 (HOP-62): > 10 µM (inactive) | GI50 (SK-MEL-5): > 10 µM (inactive) | GI50 (MDA-MB-231): > 10 µM (inactive) | GI50 (NCI-H23): > 10 µM (inactive) | GI50 (T47D): > 10 µM (inactive) | GI50 (RPMI-8226): > 10 µM (inactive) | GI50 (COLO 205): > 10 µM (inactive) | GI50 (A549): > 10 µM (inactive) | GI50 (RXF 393): > 10 µM (inactive) | GI50 (SN12C): > 10 µM (inactive) | GI50 (Malme-3M): > 10 µM (inactive) | GI50 (OVCAR-8): > 10 µM (inactive) | GI50 (HT-29): > 10 µM (inactive) | GI50 (PC-3): > 10 µM (inactive) | GI50 (KM12): > 10 µM (inactive) | GI50 (IGROV-1): > 10 µM (inactive) | GI50 (SK-OV-3): > 10 µM (inactive) | GI50 (UACC-257): > 10 µM (inactive) | GI50 (TK-10): > 10 µM (inactive) | GI50 (786-0): > 10 µM (inactive) | GI50 (DU-145): > 10 µM (inactive) | GI50 (MOLT-4): > 10 µM (inactive) | GI50 (K562): > 10 µM (inactive) | GI50 (CAKI-1): > 10 µM (inactive) | GI50 (EKVX): > 10 µM (inactive)

CC(=O)OCC1OC(OCC2OC(N3C(=S)N[C@H]([C@@H](O)[C@H](O)[C@H](O)CO)[C@H]3O)C(OC(C)=O)C(OC(C)=O)C2OC(C)=O)C(OC(C)=O)C(OC(C)=O)C1OC(C)=O (stereo partly specified)
GI50 (SW-620): > 100 µM (inactive) | GI50 (OVCAR-4): > 100 µM (inactive) | GI50 (SK-MEL-28): > 100 µM (inactive) | GI50 (M14): > 100 µM (inactive) | GI50 (MDA-MB-435): > 100 µM (inactive) | GI50 (SF-295): > 100 µM (inactive) | GI50 (HCT-15): > 100 µM | GI50 (UACC-62): > 100 µM (inactive) | GI50 (OVCAR-5): > 100 µM (inactive) | GI50 (SR): > 100 µM (inactive) | GI50 (HCC 2998): > 100 µM (inactive) | GI50 (MDA-N): > 100 µM (inactive) | GI50 (A498): > 100 µM (inactive) | GI50 (MCF7): > 100 µM (inactive) | GI50 (SF-268): > 100 µM (inactive) | GI50 (HOP-62): > 100 µM (inactive) | GI50 (ACHN): > 100 µM (inactive) | GI50 (SK-MEL-5): > 100 µM (inactive) | GI50 (MDA-MB-231): > 100 µM (inactive) | GI50 (NCI-H23): > 100 µM (inactive) | GI50 (T47D): 61.8 µM (inactive) | GI50 (RPMI-8226): 79.8 µM (inactive) | GI50 (COLO 205): > 100 µM (inactive) | GI50 (A549): > 100 µM (inactive) | GI50 (SNB-19): > 100 µM (inactive) | GI50 (UO-31): > 100 µM (inactive) | GI50 (RXF 393): > 100 µM (inactive) | GI50 (SN12C): > 100 µM (inactive) | GI50 (U-251): > 100 µM (inactive) | GI50 (Malme-3M): > 100 µM (inactive) | GI50 (NCI-H522): 83.8 µM (inactive) | GI50 (OVCAR-8): 43.9 µM (inactive) | GI50 (HT-29): 65.6 µM (inactive) | GI50 (NCI-H460): > 100 µM (inactive) | GI50 (PC-3): > 100 µM (inactive) | GI50 (NCI/ADR-RES): > 100 µM (inactive) | GI50 (HOP-92): 33.5 µM (inactive) | GI50 (OVCAR-3): > 100 µM (inactive) | GI50 (KM12): > 100 µM (inactive) | GI50 (SF-539): > 100 µM (inactive) | GI50 (SK-OV-3): > 100 µM (inactive) | GI50 (SK-MEL-2): > 100 µM (inactive) | GI50 (TK-10): > 100 µM (inactive) | GI50 (786-0): > 100 µM (inactive) | GI50 (DU-145): > 100 µM (inactive) | GI50 (MOLT-4): > 100 µM (inactive) | GI50 (HCT-116): > 100 µM (inactive) | GI50 (K562): 28.6 µM (inactive) | GI50 (CAKI-1): > 100 µM (inactive)

CCCCCCCCCCCCCCCCP(=O)(O)OP(=O)(O)OCC1OC(n2ccc(N)nc2=O)C(O)C1O (stereo unspecified)
GI50 (SK-MEL-28): 32.4 µM (inactive) and 47.5 µM (inactive) | GI50 (OVCAR-5): 18.5 µM (inactive) and 21.7 µM (inactive) | GI50 (SR): 0.323 µM (active) | GI50 (SNB-75): 16.9 µM (inactive) and 32.9 µM (inactive) | GI50 (A498): 8.91 µM (inactive) | GI50 (T47D): > 90.2 µM (inactive) | GI50 (OVCAR-3): 60 µM (inactive) | GI50 (KM12): 31.8 µM (inactive) and 38.4 µM (inactive) | GI50 (SF-539): 14.3 µM (inactive) and 22.9 µM (inactive) | GI50 (SK-MEL-2): > 100 µM (inactive) and 76.7 µM (inactive) | GI50 (TK-10): 29.4 µM (inactive) and 41 µM (inactive) | GI50 (DU-145): 25.8 µM (inactive) | GI50 (EKVX): > 100 µM (inactive)
